# Experimental data: patent publication US7888351B2, “Organic compounds” (Novartis AG, priority 2006, dated 2011)
# Biological target: T1, human DPP-IV (Homo sapiens, UniProt P27487)
# T1 construct: Human DPP-IV consisting of amino acids 39 to 766 followed by a C-terminal Streptavidin-tag; Streptavidin-tag (C); made in house
# Assay: Activity assay: inhibitory activity to human DPP-IV (fluorogenic substrate H-Gly-Pro-AMC)
# Format: biochemical
# Settings: substrate H-Gly-Pro-AMC 10 μM, enzyme 10 pM, room temperature, 1 hour; read-out: hDPPIV IC50
# Procedure: Various compounds of the invention were tested for their inhibitory activity to human DPP-IV.
# Human DPP-IV consisting of amino acids 39 to 766 followed by a C-terminal Streptavidin-tag was expressed using the baculovirus system and purified to >80% purity. The enzyme was stored in 25 mM Tris buffer, pH 9.0, containing 300 mM NaCl at −80° C. The fluorogenic substrates H-Gly-Pro-AMC was purchased from Bachem AG (Bubendorf, Switzerland). The substrate was kept as a 5 mM stock solution in DMSO at −20° C. All other chemicals were purchased from Sigma (Buchs, Switzerland).
# The assay buffer for the DPP-IV reaction was 25 mM Tris/HCl, pH 7.5, containing 140 mM NaCl, 10 mM KCl and 0.05% (w/v) CHAPS.
# The test compounds were dissolved in 90% DMSO/10% H2O (v/v). Serial dilutions of the compounds from 3 mM to 0.03 μM in 90% DMSO/10% H2O (v/v) followed by a 1:33.3 dilution in assay buffer was done in 96-well polypropylene plates using a CyBio Dilus 8-channel pipetter (CyBio AG, Jena, Germany) with tip change after each pipetting step. The compound solutions as well as the substrate and the enzyme solutions were transferred to the assay plates (384-well black Cliniplate; cat. no. 95040020 Labsystems Oy, Finland) by means of a CyBi-Well 96-channel pipetter (CyBio AG, Jena, Germany).
# Enzyme kinetics were measured by mixing 10 μl of a 3-fold concentrated substrate solution in assay buffer (final substrate concentration was 10 μM) with 10 μl of the corresponding compound solution. The reactions were initiated by addition of 10 μl of a 3-fold concentrated solution of the enzyme in assay buffer. Final enzyme (active site) concentrations in the assay was 10 pM for DPP-IV. Fluorescence product (AMC) formation was monitored for 1 hour at room temperature at 35 second intervals by measuring the fluorescence emission at 500 nm using an exitation wavelength of 350 nm in a TECAN Ultra fluorescence reader (TECAN, Maennedorf, Switzerland). The fluorescence in each well was excited by one flash per measurement. The Origin software package (Origin 7.5 Mircocal, Northampton, Mass., USA) was used to generate all graphs and to perform the IC50 calculations.
# T1 sequence (P27487 39-766): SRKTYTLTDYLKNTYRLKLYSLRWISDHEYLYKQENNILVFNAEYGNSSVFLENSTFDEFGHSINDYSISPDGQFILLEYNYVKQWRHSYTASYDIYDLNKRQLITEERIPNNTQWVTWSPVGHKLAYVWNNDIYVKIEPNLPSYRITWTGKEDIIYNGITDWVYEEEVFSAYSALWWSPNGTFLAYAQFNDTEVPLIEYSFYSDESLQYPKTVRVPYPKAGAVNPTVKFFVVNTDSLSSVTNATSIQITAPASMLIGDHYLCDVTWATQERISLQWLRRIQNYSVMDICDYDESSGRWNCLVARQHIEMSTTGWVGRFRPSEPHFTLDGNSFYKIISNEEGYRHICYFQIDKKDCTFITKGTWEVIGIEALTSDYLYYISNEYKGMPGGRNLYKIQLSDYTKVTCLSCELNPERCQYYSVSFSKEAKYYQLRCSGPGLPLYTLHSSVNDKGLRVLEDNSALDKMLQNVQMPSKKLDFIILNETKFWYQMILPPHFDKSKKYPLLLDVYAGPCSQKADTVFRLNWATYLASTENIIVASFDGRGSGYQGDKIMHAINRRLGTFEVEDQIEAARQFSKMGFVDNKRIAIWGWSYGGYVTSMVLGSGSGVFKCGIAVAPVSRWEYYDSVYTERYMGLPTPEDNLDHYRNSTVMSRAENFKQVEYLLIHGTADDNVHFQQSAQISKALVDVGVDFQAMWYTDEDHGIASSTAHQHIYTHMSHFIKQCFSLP
row,SMILES,IC50 [nM]
1,"C[C@](O)(C(=O)N1[C@@H]2CC[C@H]1C[C@H]([C@H](N)Cc1cc(F)c(F)cc1F)C2)c1ccccc1 [Example G4, (R)-1-{3-exo-[(R)-1-Amino-2-(2,4,5-trifluoro-phenyl)-ethyl]-8-aza-bicyclo[3.2.1]oct-8-yl}-2-hydroxy-2-phenyl-propan-1-one]",10
2,"Cc1cnc(C(=O)NCCS(=O)(=O)N2[C@@H]3CC[C@H]2C[C@H]([C@H](N)Cc2cc(F)c(F)cc2F)C3)cn1 [Example D1, 5-Methyl-pyrazine-2-carboxylic acid (2-{3-exo-[(R)-1-amino-2-(2,4,5-trifluoro-phenyl)-ethyl]-8-aza-bicyclo[3.2.1]octane-8-sulfonyl}-ethyl)-amide]",7.7
3,"N[C@H](Cc1cc(F)c(F)cc1F)[C@@H]1C[C@H]2CC[C@@H](C1)N2C(=O)CS(=O)(=O)N1Cc2ccccc2C1 [Example H13, 1-{3-exo-[(R)-1-Amino-2-(2,4,5-trifluoro-phenyl)-ethyl]-8-aza-bicyclo[3.2.1]oct-8-yl}-2-(1,3-dihydro-isoindole-2-sulfonyl)-ethanone]",7
4,"N[C@H](Cc1cc(F)c(F)cc1F)[C@@H]1C[C@H]2CC[C@@H](C1)N2C(=O)CNC(=O)C1(O)CC1 [Example E7, 1-Hydroxy-cyclopropanecarboxylic acid (2-{3-exo-[(R)-1-amino-2-(2,4,5-trifluoro-phenyl)-ethyl]-8-aza-bicyclo[3.2.1]oct-8-yl}-2-oxo-ethyl)-amide]",0.6
